Reference: patent publication US6759228B2, “Alkaline protease” (Kao Corporation, priority 1997, dated 2004)
Like-named read-outs stand apart in the source and are kept apart here. *1 amine or outer side, *2 acyl side, *3 side chain or, on linkers, in order; H or OH if unused. Where a SMILES comes first, the peptide text is derived from it. CO = O=C([*:1])[*:2]

Legend:
[1] = system: KP43 protease; type: biochemical, Bacillus sp. KSM-KP43
[2] = system: KP1790 protease; assay: Effects of metal ions: residual activity, casein method; type: biochemical, Bacillus sp. KSM-KP1790
[3] = system: KP9860 protease; type: biochemical, Bacillus sp. KSM-KP9860
[4] = system: KP9860 protease; assay: Effects of inhibitors: residual activity, casein method; type: biochemical, Bacillus sp. KSM-KP9860
[5] = system: all three kinds of proteases (KP43, KP1790, KP9860); type: biochemical, Bacillus sp.; details: pH 7
[6] = system: KP1790 protease; type: biochemical, Bacillus sp. KSM-KP1790; details: pH 7
[7] = system: KP43 protease; type: biochemical, Bacillus sp. KSM-KP43; details: pH 7
[8] = system: 3 kinds of proteases (KP43, KP1790, KP9860); assay: Effects of metal ions, summary for the 3 kinds of proteases; type: biochemical, Bacillus sp.; details: 1 mmol/L metal salt, 20 mmol/L boric acid buffer (pH 10), 30° C., 20 minutes
[9] = system: KP9860 protease; assay: Effects of surface active agents: residual activity, casein method; type: biochemical, Bacillus sp. KSM-KP9860; details: 1% surfactant, 100 mM borate buffer (pH 10.0), 40° C., 4 hours; no treatment = 100%
Protocol: (§1) After 1 mL of 50 mmol/L of various buffer solutions containing 1% (w/v) Casein (Hammerstein: product of Merck Inc.) was maintained at 40° C. for 5 minutes, 0.1 mL of an enzyme solution was added to the solution, followed by incubation at 40° C. for 10 minutes. 2 mL of a TCA solution (0.11 mol/L trichloroacetic acid: 0.22 mol/L sodium acetate: 0.33 mol/L acetic acid) was added to stop the reaction and the mixture was left to stand at room temperature for 10 minutes. Subsequently, acid-denatured protein was filtered (No. 2 filter paper: product of Whattmann). To 0.5 mL of the filtrate, 2.5 mL of alkaline copper reagent (1% (w/v) sodium potassium tartrate: 1% (w/v) copper sulfate: 2% (w/v) sodium carbonate, 0.1 mol/L sodium hydroxide=1:1:100 (v/v)) was added, and after the solution was maintained at 30° C. for 10 minutes, 0.25 mL of diluted phenol reagent (phenol reagent (product of Kanto Chemical) diluted two-fold with deionized water) was added, and after being maintained at 30° C. for 30 minutes, the solution was subjected to an absorbance measurement at 660 nm. The following solution was used as a blank: to the above-described system of enzyme reaction, a reaction termination solution was mixed and then the enzyme solution was added.
(§2) An enzyme solution (7.0×10^−4 mP. U.) was added to 100 mmol/L boric acid buffer solution containing dissolved surfactants in an amount of 1%, and the resultant solution was incubated at 40° C. for 4 hours. The solution was diluted 20-fold with 50 mmol/L boric acid buffer solution (pH 10.0), and residual activity was measured using casein as a substrate.
(§3) Each protease was treated with a variety of 1% surface active agent at 40° C. for 4 hours in […], and residual activity was measured. […] Accordingly, the enzymes are considered to be useful as a detergent component containing surfactants.

[10] = system: KP43 protease; assay: as above; type: biochemical, Bacillus sp. KSM-KP43; details: 1% surfactant, 100 mM borate buffer (pH 10.0), 40° C., 4 hours; no treatment = 100%
Protocol: as §1, §2, §3

[11] = system: KP1790 protease; assay: as above; type: biochemical, Bacillus sp. KSM-KP1790; details: 1% surfactant, 100 mM borate buffer (pH 10.0), 40° C., 4 hours; no treatment = 100%
[12] = 1 mM metal salt, 20 mM borate buffer (pH 10.0), 30° C., 20 minutes, no metal salt = 100%
[13] = inhibitor 5 mM, 10 mmol/L phosphoric acid buffer (pH 7.0), 30° C., 20 minutes, no inhibitor = 100%
[14] = inhibitor 0.1 mM, 10 mmol/L phosphoric acid buffer (pH 7.0), 30° C., 20 minutes, no inhibitor = 100%

Compound: [Cl][Cu][Cl] [CuCl2]
- Residual activity (%) KP43 [1, 12]: 91%
- Residual activity (%) KP1790 [2, 12]: 96%
- Residual activity (%) KP9860 [3, 12]: 94%

Compound: CC(C)C[C@H](NC(=O)[C@@H](NC(=O)N[C@@H](Cc1ccccc1)C(=O)O)[C@@H]1CCN=C(N)N1)C(=O)N[C@H](C=O)Cc1ccccc1 [Chymostatin]
- Residual activity (%) KP9860 ([4]; pH 7): 80%
- effect of inhibitor on activity [5]: inhibited
- Residual activity (%) KP1790 [6]: 87%
- Residual activity (%) KP43 [7]: 87%

Compound: O=C(O)CN(CCOCCOCCN(CC(=O)O)CC(=O)O)CC(=O)O [EGTA, ethyleneglycoltetraacetic acid]
- Residual activity (%) KP9860 [4, 13]: 90%
- Residual activity (%) KP1790 [6]: 91%
- Residual activity (%) KP43 [7]: 92%

Compound: CC(C)C[C@H](NC(=O)[C@H]1O[C@@H]1C(=O)O)C(=O)NCCCCN=C(N)N [E-64]
- Residual activity (%) KP9860 ([4]; pH 7): 103%
- Residual activity (%) KP1790 [6]: 99%
- Residual activity (%) KP43 [7]: 104%

Compound: [Cl][Hg][Cl] [HgCl2, mercury chloride]
- effect of metal salt on activity [8]: inhibited
- Residual activity (%) KP43 [1, 12]: 38%
- Residual activity (%) KP1790 [2, 12]: 37%
- Residual activity (%) KP9860 [3, 12]: 33%

Compound: [Cl][Fe]([Cl])[Cl] [FeCl3]
- Residual activity (%) KP43 [1, 12]: 93%
- Residual activity (%) KP1790 [2, 12]: 113%
- Residual activity (%) KP9860 [3, 12]: 96%

Compound: [Cl-].[Cl-].[Zn+2] [ZnCl2]
- Residual activity (%) KP43 [1, 12]: 85%
- Residual activity (%) KP1790 [2, 12]: 94%
- Residual activity (%) KP9860 [3, 12]: 91%

Compound: O=C(O)c1cc[c]([Hg][Cl])cc1 [PCMB, p-chloromercury benzoate]
- Residual activity (%) KP9860 ([4]; pH 7): 126%
- Residual activity (%) KP1790 [6]: 115%
- Residual activity (%) KP43 [7]: 125%

Compound: O=C(O)CN(CCN(CC(=O)O)CC(=O)O)CC(=O)O [EDTA, ethylenediaminetetraacetic acid]
- Residual activity (%) KP9860 [4, 13]: 101%
- Residual activity (%) KP1790 [6]: 97%
- Residual activity (%) KP43 [7]: 110%

Compound: O=[N+]([O-])[O-].[Ag+] [AgNO3, silver nitrate]
- effect of metal salt on activity [8]: inhibited
- Residual activity (%) KP43 [1, 12]: 66%
- Residual activity (%) KP1790 [2, 12]: 70%
- Residual activity (%) KP9860 [3, 12]: 45%

Compound: α-Sulfofatty acid ester [α-Sulfofatty acid ester (α-SFE)]
- Residual activity KP9860 [9]: 105%
- Residual activity KP43 [10]: 112%
- Residual activity KP1790 [11]: 113%

Compound: O[C@H](CS)[C@H](O)CS (racemic) [DTT, dithiothreitol]
- Residual activity (%) KP9860 [4, 13]: 105%
- Residual activity (%) KP1790 [6]: 102%
- Residual activity (%) KP43 [7]: 104%

Compound: CCN1C(=O)C=CC1=O [NEM, N-ethylmaleimide]
- Residual activity (%) KP9860 ([4]; pH 7): 100%
- Residual activity (%) KP1790 [6]: 100%
- Residual activity (%) KP43 [7]: 97%

Compound: Na polyoxyethylene alkylsulfate [Na polyoxyethylene alkylsulfate (ES)]
- Residual activity KP9860 [9]: 104%
- Residual activity KP43 [10]: 101%
- Residual activity KP1790 [11]: 102%

Compound: Na alkyl sulfate [Na alkyl sulfate (AS)]
- Residual activity KP9860 [9]: 107%
- Residual activity KP43 [10]: 113%
- Residual activity KP1790 [11]: 107%

Compound: Na α-olefinsulfonate [Na α-olefinsulfonate (AOS)]
- Residual activity KP9860 [9]: 100%
- Residual activity KP43 [10]: 100%
- Residual activity KP1790 [11]: 111%

Compound: CC(=O)N[C@@H](CC(C)C)C(=O)N[C@@H](CC(C)C)C(=O)N[C@H](C=O)CCCNC(=N)N [Leupeptin]
- Residual activity (%) KP9860 ([4]; pH 7): 93%
- effect of inhibitor on activity [5]: not found
- Residual activity (%) KP1790 [6]: 101%
- Residual activity (%) KP43 [7]: 102%

Compound: [Cl][Ni][Cl] [NiCl2]
- Residual activity (%) KP43 [1, 12]: 92%
- Residual activity (%) KP1790 [2, 12]: 95%
- Residual activity (%) KP9860 [3, 12]: 96%

Compound: CoCl2
- Residual activity (%) KP43 ([1]; pH 10): 91%
- Residual activity (%) KP1790 ([2]; pH 10): 101%
- Residual activity (%) KP9860 ([3]; pH 10): 98%

Compound: Na linear alkylbenzenesulfonate [Na linear alkylbenzenesulfonate (LAS)]
- Residual activity KP9860 [9]: 100%
- Residual activity KP43 [10]: 100%
- Residual activity KP1790 [11]: 88%

Compound: [Ca+2].[Cl-].[Cl-] [CaCl2, calcium chloride]
- Residual activity (%) KP43 ([1]; pH 10): 97%
- Residual activity (%) KP1790 ([2]; pH 10): 95%
- Residual activity (%) KP9860 ([3]; pH 10): 101%

Compound: [Cl-].[Cl-].[Mg+2] [MgCl2]
- Residual activity (%) KP43 [1, 12]: 92%
- Residual activity (%) KP1790 [2, 12]: 103%
- Residual activity (%) KP9860 [3, 12]: 100%

Compound: CC(C)[C@H](NC(=O)[C@H](CCCNC(=N)N)NC(=O)N[C@@H](Cc1ccccc1)C(=O)O)C(=O)N[C@H](C=O)CCCNC(=N)N [Antipine] ({Phe-CO}-Arg-Val-Arg-aldehyde)
- Residual activity (%) KP9860 [4, 14]: 97%
- effect of inhibitor on activity [5]: not found
- Residual activity (%) KP1790 [6]: 99%
- Residual activity (%) KP43 [7]: 103%

Compound: CC(C)C[C@H](NC(=O)N[C@H](C(=O)N[C@@H](CCC(N)=O)C(=O)N[C@@H](C)C=O)[C@@H]1CCNC(=N)N1)C(=O)O [Elastatinal]
- Residual activity (%) KP9860 [4, 14]: 102%
- Residual activity (%) KP1790 [6]: 102%
- Residual activity (%) KP43 [7]: 99%

Compound: O=S(=O)(F)Cc1ccccc1 [PMSF, phenylmethanesulfonyl fluoride]
- Residual activity (%) KP9860 ([4]; pH 7): 0%
- effect of inhibitor on activity [5]: inhibited
- Residual activity (%) KP1790 [6]: 0%
- Residual activity (%) KP43 [7]: 0%

Compound: c1cnc2c(c1)ccc1cccnc12 [o-Phenanthroline]
- Residual activity (%) KP9860 [4, 13]: 100%
- Residual activity (%) KP1790 [6]: 103%
- Residual activity (%) KP43 [7]: 100%

Compound: CCCCCCCCCCCCOS(=O)(=O)[O-].[Na+] [Na dodecyl sulfate (SDS), Na dodecyl sulfate]
- Residual activity KP9860 [9]: 103%
- Residual activity KP43 [10]: 104%
- Residual activity KP1790 [11]: 97%
